A word on the Ki: it is a measure of affinity in units of concentration, obtained from inhibition or displacement. Read a high Ki as weaker binding.

Some results are limits rather than exact numbers.

Experimental findings from BindingDB's records for doi:10.1073/pnas.151105198 (Synaptic Pharmaceutical, 2001) are described below.

The assay addresses T1, Trace amine-associated receptor 1 (Homo sapiens, UniProt Q96RJ0).
T1 sequence (Q96RJ0 whole entry): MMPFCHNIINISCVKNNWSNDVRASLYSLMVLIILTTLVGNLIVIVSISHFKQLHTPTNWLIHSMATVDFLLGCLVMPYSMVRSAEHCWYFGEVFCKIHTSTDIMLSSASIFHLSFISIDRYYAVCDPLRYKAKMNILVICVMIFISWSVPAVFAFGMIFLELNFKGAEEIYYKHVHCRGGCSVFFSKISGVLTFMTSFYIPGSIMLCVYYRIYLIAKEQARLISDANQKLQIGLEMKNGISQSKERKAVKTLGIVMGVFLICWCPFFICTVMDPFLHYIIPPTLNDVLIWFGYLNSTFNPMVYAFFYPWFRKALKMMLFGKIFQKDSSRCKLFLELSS
Regarding `NCCc1ccc(O)cc1`, the Ki turned out to be 34 nM.

The compound `CN1CCN(C2Cc3ccccc3Sc3ccc(Cl)cc32)CC1` (stereo unspecified) [1-(8-chloro-10,11-dihydrodibenzo[b,f]thiepin-10-yl)-4-methylpiperazine] had a Ki of 493 nM.

`NCCc1c[nH]c2ccccc12` [1H-indole-3-ethanamine] registered a Ki of 1080 nM.

Compound `OCCc1ccccc1` [NSC_6054] displayed a Ki of 8 nM.

As for `NCC(O)c1ccc(O)c(O)c1` (stereo not drawn) [Noradrenaline,(+)], the Ki is greater than 10000 nM.

With `NCCc1c[nH]cn1` [[3H]histamine], the Ki was 3110 nM.
